Reference: ChEMBL document CHEMBL3046164, “A facile synthesis of some 3-cyano-1,4,6-trisubstituted-2(1H)-pyridinones and their biological evaluation as anticancer agents” (2011)
Where “and” joins values, the source holds several entries; their conditions need not be identical. Identical values can stand only once.

Tests used:
Type in all cases: functional
PC-3 = assay: Growth inhibition of Homo sapiens (human) PC3 cells at 10 uM after 48 hr by SRB assay; conditions: PC-3, 48 h, read-out: GI
RPMI-8226 [1] = assay: Growth inhibition of Homo sapiens (human) RPMI8226 cells at 10 uM after 48 hr by SRB assay; conditions: RPMI-8226, 48 h, read-out: GI
CCRF-CEM [2] = assay: Growth inhibition of Homo sapiens (human) CCRF-CEM cells at 10 uM after 48 hr by SRB assay; conditions: read-out: GI
K562 = assay: Growth inhibition of Homo sapiens (human) K562 cells at 10 uM after 48 hr by SRB assay; conditions: K562, 48 h, read-out: GI
HOP-92 [3] = assay: Growth inhibition of Homo sapiens (human) HOP92 cells at 10 uM after 48 hr by SRB assay; conditions: HOP-92, 48 h, read-out: GI
SR [4] = assay: Growth inhibition of Homo sapiens (human) SR cells at 10 uM after 48 hr by SRB assay; conditions: read-out: GI
NCI-H23 = assay: Growth inhibition of Homo sapiens (human) NCI-H23 cells at 10 uM after 48 hr by SRB assay; conditions: NCI-H23, 48 h, read-out: GI
MOLT-4 = assay: Growth inhibition of Homo sapiens (human) MOLT4 cells at 10 uM after 48 hr by SRB assay; conditions: MOLT-4, 48 h, read-out: GI
HL-60(TB) [5] = assay: Growth inhibition of Homo sapiens (human) HL-60(TB) cells at 10 uM after 48 hr by SRB assay; conditions: HL-60, 48 h, read-out: GI
SNB-75 [6] = assay: Cytotoxicity against Homo sapiens (human) SNB75 cells after 48 hr by SRB assay; conditions: SNB-75, 48 h
UACC-62 = assay: Cytotoxicity against Homo sapiens (human) UACC62 cells after 48 hr by SRB assay; conditions: UACC-62, 48 h
SF-539 = assay: Cytotoxicity against Homo sapiens (human) SF539 cells after 48 hr by SRB assay; conditions: SF-539, 48 h
SF-268 = assay: Cytotoxicity against Homo sapiens (human) SF268 cells after 48 hr by SRB assay; conditions: SF-268, 48 h
HCC 2998 = assay: Cytotoxicity against Homo sapiens (human) HCC2998 cells after 48 hr by SRB assay; conditions: HCC 2998, 48 h
HOP-92 [7] = assay: Cytotoxicity against Homo sapiens (human) HOP92 cells after 48 hr by SRB assay; conditions: HOP-92, 48 h
EKVX = assay: Cytotoxicity against Homo sapiens (human) EKVX cells after 48 hr by SRB assay
HOP-62 = assay: Cytotoxicity against Homo sapiens (human) HOP62 cells after 48 hr by SRB assay; conditions: HOP-62, 48 h
SR [8] = assay: Cytotoxicity against Homo sapiens (human) SR cells after 48 hr by SRB assay
RPMI-8226 [9] = assay: Cytotoxicity against Homo sapiens (human) RPMI8226 cells after 48 hr by SRB assay
CCRF-CEM [10] = assay: Cytotoxicity against Homo sapiens (human) CCRF-CEM cells after 48 hr by SRB assay
HL-60(TB) [11] = assay: Cytotoxicity against Homo sapiens (human) HL-60(TB) cells after 48 hr by SRB assay; conditions: HL-60, 48 h
SNB-75 [12] = assay: Growth inhibition of Homo sapiens (human) SNB75 cells at 10 uM after 48 hr by SRB assay; conditions: SNB-75, 48 h, read-out: GI
MCF7 = assay: Growth inhibition of Homo sapiens (human) MCF7 cells at 10 uM after 48 hr by SRB assay; conditions: MCF7, 48 h, read-out: GI
T47D [13] = assay: Growth inhibition of Homo sapiens (human) T47D cells at 10 uM after 48 hr by SRB assay; conditions: read-out: GI
T47D [14] = assay: Cytotoxicity against Homo sapiens (human) T47D cells after 48 hr by SRB assay
BT-549 = assay: Cytotoxicity against Homo sapiens (human) BT549 cells after 48 hr by SRB assay; conditions: BT-549, 48 h
MDA-MB-231 = assay: Cytotoxicity against Homo sapiens (human) MDA-MB-231 cells after 48 hr by SRB assay; conditions: MDA-MB-231, 48 h
UO-31 = assay: Cytotoxicity against Homo sapiens (human) UO31 cells after 48 hr by SRB assay; conditions: UO-31, 48 h
OVCAR-4 = assay: Cytotoxicity against Homo sapiens (human) OVCAR4 cells after 48 hr by SRB assay; conditions: OVCAR-4, 48 h
A498 [15] = assay: Cytotoxicity against Homo sapiens (human) A498 cells after 48 hr by SRB assay; conditions: A498, 48 h
OVCAR-3 = assay: Cytotoxicity against Homo sapiens (human) OVCAR3 cells after 48 hr by SRB assay; conditions: OVCAR-3, 48 h
IGROV-1 = assay: Cytotoxicity against Homo sapiens (human) IGROV1 cells after 48 hr by SRB assay; conditions: IGROV-1, 48 h
A498 [16] = assay: Growth inhibition of Homo sapiens (human) A498 cells at 10 uM after 48 hr by SRB assay; conditions: A498, 48 h, read-out: GI
MDA-MB-468 = assay: Growth inhibition of Homo sapiens (human) MDA-MB-468 cells at 10 uM after 48 hr by SRB assay; conditions: MDA-MB-468, 48 h, read-out: GI
CAKI-1 = assay: Growth inhibition of Homo sapiens (human) CAKI-1 cells at 10 uM after 48 hr by SRB assay; conditions: CAKI-1, 48 h, read-out: GI

Cn1cccc1-c1cc(-c2ccc(Br)cc2)n(Cc2ccccc2)c(=O)c1C#N
inhibition of growth at 10 µM (PC-3): 32.5%
inhibition of growth at 10 µM (RPMI-8226 [1]): 38.2%
inhibition of growth at 10 µM (CCRF-CEM [2]): 39.5%
inhibition of growth at 10 µM (K562): 45.4%
inhibition of growth at 10 µM (HOP-92 [3]): 44.7%

COc1ccc(-c2cc(-c3cccs3)n(C(C)=O)c(=O)c2C#N)cc1
inhibition of growth at 10 µM (SR [4]): 30.5%
inhibition of growth at 10 µM (HOP-92 [3]): 29.6%

COc1ccc(-c2cc(-c3cccn3C)c(C#N)c(=O)n2C(C)=O)cc1OC
inhibition of growth at 10 µM (K562): 25.3%

COc1ccc(-c2cc(-c3cccs3)n(N=O)c(=O)c2C#N)cc1
inhibition of growth at 10 µM (CCRF-CEM [2]): 42%
inhibition of growth at 10 µM (K562): 65.8%
inhibition of growth at 10 µM (HOP-92 [3]): 36.2%

Cn1cccc1-c1cc(-c2ccc(Br)cc2)n(S(=O)(=O)c2ccccc2)c(=O)c1C#N
inhibition of growth at 10 µM (NCI-H23): 22.2%
inhibition of growth at 10 µM (MOLT-4): 26.6%
inhibition of growth at 10 µM (HL-60(TB) [5]): 59.7%
inhibition of growth at 10 µM (CCRF-CEM [2]): 55.9%
inhibition of growth at 10 µM (K562): 22.5%
inhibition of growth at 10 µM (HOP-92 [3]): 26%

COc1ccc(-c2cc(-c3cccn3C)c(C#N)c(=O)n2C=O)cc1OC
inhibition of growth at 10 µM (MOLT-4): 28.5%
inhibition of growth at 10 µM (HL-60(TB) [5]): 57.1%
inhibition of growth at 10 µM (CCRF-CEM [2]): 47.1%
inhibition of growth at 10 µM (K562): 21.4%

COc1ccc(-c2cc(-c3cccn3C)c(C#N)c3nnc(C)n23)cc1OC
GI50 (SNB-75 [6]): 44.7 µM
GI50 (UACC-62): 95.5 µM
GI50 (SF-539): > 100 µM
GI50 (SF-268): > 100 µM
GI50 (HCC 2998): > 100 µM
GI50 (HOP-92 [7]): > 100 µM
GI50 (EKVX): 0.01 µM
TGI (EKVX): 0.03 µM
GI50 (HOP-62): 37.1 µM
GI50 (SR [8]): > 100 µM
GI50 (RPMI-8226 [9]): 45.7 µM and 19 µM
GI50 (CCRF-CEM [10]): > 100 µM
GI50 (HL-60(TB) [11]): > 100 µM
inhibition of growth at 10 µM (PC-3): 23.8%
inhibition of growth at 10 µM (SNB-75 [12]): 25.8%
inhibition of growth at 10 µM (CCRF-CEM [2]): 39.2%
inhibition of growth at 10 µM (K562): 41.5%
inhibition of growth at 10 µM (HOP-92 [3]): 48%
inhibition of growth at 10 µM (MCF7): 29%
inhibition of growth at 10 µM (T47D [13]): 34.3%
GI50 (T47D [14]): > 100 µM
GI50 (BT-549): > 100 µM
GI50 (MDA-MB-231): > 100 µM
GI50 (UO-31): > 100 µM
GI50 (OVCAR-4): > 100 µM
GI50 (A498 [15]): 25.7 µM
GI50 (OVCAR-3): > 100 µM
GI50 (IGROV-1): > 100 µM

CCn1c(-c2ccc(OC)c(OC)c2)cc(-c2cccn2C)c(C#N)c1=O
inhibition of growth at 10 µM (A498 [16]): 44%
inhibition of growth at 10 µM (CCRF-CEM [2]): 43.7%
inhibition of growth at 10 µM (K562): 63.5%
inhibition of growth at 10 µM (HOP-92 [3]): 29%

CCn1c(-c2ccc(Br)cc2)cc(-c2cccn2C)c(C#N)c1=O
inhibition of growth at 10 µM (PC-3): 28%
inhibition of growth at 10 µM (MDA-MB-468): 30%
inhibition of growth at 10 µM (RPMI-8226 [1]): 35%
inhibition of growth at 10 µM (CCRF-CEM [2]): 62.5%
inhibition of growth at 10 µM (HOP-92 [3]): 28.3%

CC(=O)n1c(-c2ccc(Br)cc2)cc(-c2cccn2C)c(C#N)c1=O
inhibition of growth at 10 µM (HOP-92 [3]): 24.6%

COc1ccc(-c2cc(-c3cccn3C)c(C#N)c(=O)n2C(=S)Nc2ccc(F)cc2)cc1OC
inhibition of growth at 10 µM (CAKI-1): 31.1%
inhibition of growth at 10 µM (SR [4]): 27.8%
inhibition of growth at 10 µM (K562): 26.9%
